From PMC7316994, “In Vitro Pharmacological Profile of a New Small Molecule Bradykinin B2 Receptor Antagonist” (Frontiers in Pharmacology, 2020)
“And” between values parts separate entries of the source, which are not always exact repeats. Identical values can stand only once.

Assays:
[1] = target: T1, cynomolgus monkey B2 receptor (Macaca fascicularis, UniProt A0A7N9CWN6); assay: cell-based
T1 sequence (A0A7N9CWN6 1-391): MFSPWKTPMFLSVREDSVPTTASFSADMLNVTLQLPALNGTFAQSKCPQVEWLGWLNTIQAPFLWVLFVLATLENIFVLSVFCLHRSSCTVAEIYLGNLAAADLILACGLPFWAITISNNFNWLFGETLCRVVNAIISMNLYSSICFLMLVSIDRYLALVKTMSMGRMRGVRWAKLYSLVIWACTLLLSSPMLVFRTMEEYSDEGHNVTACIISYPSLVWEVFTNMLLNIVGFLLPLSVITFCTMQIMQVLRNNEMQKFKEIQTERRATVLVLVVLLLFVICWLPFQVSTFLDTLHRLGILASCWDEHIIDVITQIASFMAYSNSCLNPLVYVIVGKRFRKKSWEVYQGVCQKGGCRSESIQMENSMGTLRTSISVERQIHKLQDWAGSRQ

kinin B1 receptor = target: T2, kinin B1 receptor (Homo sapiens, UniProt P46663); assay: umbilical vein, Sar-[D-Phe^8]des-Arg^9-BK-induced contraction; details: 1 μM
T2 construct: during the 3-hour incubation period to upregulate the expression of B1; from tissue; host or cells: human umbilical vein rings pre-incubated with interleukin-1β and tumor necrosis factor-α

Neurokinin NK2 = target: T3, Neurokinin NK2 (Homo sapiens, UniProt P21452); design: method as in FDA Pharmacology Review Icatibant; details: ref FDA Pharmacology Review Icatibant; read-out: IC50, binding to NK2 receptors; cited from earlier work
T3 construct: host or cells: CHO cells
T3 sequence (P21452 1-398): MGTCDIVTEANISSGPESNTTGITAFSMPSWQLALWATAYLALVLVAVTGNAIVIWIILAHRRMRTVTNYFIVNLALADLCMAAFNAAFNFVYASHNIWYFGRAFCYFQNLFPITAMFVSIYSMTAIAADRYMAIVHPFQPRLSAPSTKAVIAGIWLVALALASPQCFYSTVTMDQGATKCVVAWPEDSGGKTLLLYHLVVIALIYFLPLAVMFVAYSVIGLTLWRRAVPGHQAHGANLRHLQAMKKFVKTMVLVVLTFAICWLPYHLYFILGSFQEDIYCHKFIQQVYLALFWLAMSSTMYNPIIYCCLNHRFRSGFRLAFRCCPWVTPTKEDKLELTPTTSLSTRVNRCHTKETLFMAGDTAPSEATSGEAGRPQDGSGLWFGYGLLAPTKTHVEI

[2] = target: T4, endogenous human B2 receptor (Homo sapiens, UniProt P30411); assay: human isolated umbilical vein contractility assay, BK-induced contraction; details: for Maximal BK-induced response in absolute force units ± S.E.M.: vehicle: Icatibant 1.90, Compound 1 […]
T4 construct: BK-induced contraction at endogenous human B2 receptor in the umbilical vein model; from tissue; host or cells: human umbilical vein rings (donor cords after elective caesarean section)
T4 sequence (P30411 1-391): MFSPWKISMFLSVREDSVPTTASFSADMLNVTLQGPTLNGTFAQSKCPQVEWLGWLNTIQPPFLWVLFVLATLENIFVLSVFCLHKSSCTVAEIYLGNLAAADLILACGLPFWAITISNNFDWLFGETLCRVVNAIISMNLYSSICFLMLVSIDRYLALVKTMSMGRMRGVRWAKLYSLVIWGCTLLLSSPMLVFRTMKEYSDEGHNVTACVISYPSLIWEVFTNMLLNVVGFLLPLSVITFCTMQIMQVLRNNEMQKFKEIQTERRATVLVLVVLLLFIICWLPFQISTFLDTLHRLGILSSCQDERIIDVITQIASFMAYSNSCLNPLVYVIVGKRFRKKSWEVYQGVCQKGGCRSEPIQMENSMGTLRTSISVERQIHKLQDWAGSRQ

mouse B2 receptor = target: T5, mouse B2 receptor (Mus musculus, UniProt P32299); assay: Ca^2+ mobilization assay, HEK293T cells; format: cell-based; details: BK at EC80 0.53 nM, n=1
T5 construct: host or cells: HEK293T cells
T5 sequence (P32299 1-392): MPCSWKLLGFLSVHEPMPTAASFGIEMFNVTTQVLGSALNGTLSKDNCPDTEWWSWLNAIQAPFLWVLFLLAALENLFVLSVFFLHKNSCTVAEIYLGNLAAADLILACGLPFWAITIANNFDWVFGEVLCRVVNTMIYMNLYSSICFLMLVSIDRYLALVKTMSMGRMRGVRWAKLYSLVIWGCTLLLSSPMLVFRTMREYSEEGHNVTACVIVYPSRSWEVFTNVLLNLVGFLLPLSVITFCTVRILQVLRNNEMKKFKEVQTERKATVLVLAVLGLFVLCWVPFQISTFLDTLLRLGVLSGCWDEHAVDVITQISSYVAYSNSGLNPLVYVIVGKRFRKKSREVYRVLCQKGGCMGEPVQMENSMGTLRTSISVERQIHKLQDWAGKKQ

[3] = target: T4, endogenous human B2 receptor; design: method as in Marceau et al., 1994; details: umbilical vein; ref Marceau et al., 1994; cited from earlier work
rat B2 receptor = target: T6, rat B2 receptor (Rattus norvegicus, UniProt P25023); assay: Ca^2+ mobilization assay, HEK293T cells; format: cell-based; details: BK at EC80 4.32 nM
T6 construct: host or cells: HEK293T cells
T6 sequence (P25023 1-396): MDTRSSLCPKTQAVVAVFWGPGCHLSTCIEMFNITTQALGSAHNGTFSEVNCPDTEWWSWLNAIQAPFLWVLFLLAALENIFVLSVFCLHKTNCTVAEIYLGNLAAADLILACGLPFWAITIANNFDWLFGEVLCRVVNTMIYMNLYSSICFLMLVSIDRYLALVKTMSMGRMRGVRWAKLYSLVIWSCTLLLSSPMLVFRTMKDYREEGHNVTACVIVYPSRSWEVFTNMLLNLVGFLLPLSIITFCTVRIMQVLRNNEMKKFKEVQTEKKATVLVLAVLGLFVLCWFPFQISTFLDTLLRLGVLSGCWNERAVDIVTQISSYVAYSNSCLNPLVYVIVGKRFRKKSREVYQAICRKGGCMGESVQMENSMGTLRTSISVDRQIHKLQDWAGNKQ

dog B2 receptor = target: T7, dog B2 receptor (Canis lupus familiaris, UniProt Q9BDQ4); assay: Ca^2+ mobilization assay, HEK293T cells; format: cell-based; details: Dog; BK at EC80 1.86 nM; n=1; read-out: IC50 (nM) Mean
T7 sequence (Q9BDQ4 1-392): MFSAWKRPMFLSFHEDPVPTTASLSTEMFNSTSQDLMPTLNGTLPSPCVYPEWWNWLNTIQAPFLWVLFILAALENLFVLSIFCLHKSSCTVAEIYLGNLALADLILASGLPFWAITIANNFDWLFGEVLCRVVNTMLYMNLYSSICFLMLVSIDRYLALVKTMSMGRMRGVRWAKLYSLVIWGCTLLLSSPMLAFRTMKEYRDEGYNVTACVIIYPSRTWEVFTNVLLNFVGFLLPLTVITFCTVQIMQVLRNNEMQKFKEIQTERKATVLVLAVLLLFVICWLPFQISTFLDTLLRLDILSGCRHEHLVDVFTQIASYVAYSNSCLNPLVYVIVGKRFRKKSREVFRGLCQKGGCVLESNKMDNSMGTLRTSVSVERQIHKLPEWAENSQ

T2 sequence (P46663 whole entry): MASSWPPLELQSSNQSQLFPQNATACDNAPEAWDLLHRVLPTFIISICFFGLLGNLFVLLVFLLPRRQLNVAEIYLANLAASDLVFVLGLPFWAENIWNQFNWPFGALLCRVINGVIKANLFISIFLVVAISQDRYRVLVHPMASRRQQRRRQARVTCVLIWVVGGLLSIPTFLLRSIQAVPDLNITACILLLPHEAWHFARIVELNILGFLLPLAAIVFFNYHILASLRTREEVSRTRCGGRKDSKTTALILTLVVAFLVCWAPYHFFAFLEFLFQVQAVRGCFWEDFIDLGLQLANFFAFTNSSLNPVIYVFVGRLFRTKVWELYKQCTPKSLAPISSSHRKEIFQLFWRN

## NC(N)=NCCC[C@@H](N)C(=O)N[C@@H](CCCN=C(N)N)C(=O)N1CCC[C@H]1C(=O)N1C[C@H](O)C[C@H]1C(=O)NCC(=O)N[C@@H](Cc1cccs1)C(=O)N[C@@H](CO)C(=O)N1Cc2ccccc2C[C@@H]1C(=O)N1[C@H](C(=O)N[C@@H](CCCN=C(N)N)C(=O)O)C[C@@H]2CCCC[C@@H]21 [icatibant, reference compound]
[1]
  IC50: 0.0171 µM
  Kb: 0.00406 µM
Kinin B1 receptor
  effect on contraction by B1 receptor agonist Sar-[D-Phe^8]des-Arg^9-BK: failed to antagonize
Neurokinin NK2
  IC50: 0.42 µM
[2]; BK concentration-effect curves, Emax
  type of antagonism of BK: competitive (surmountable) antagonist
[2]; Schild regression, Pharm/PCS, ± S.E.M. where given
  Schild plot slope: -0.85 ± 0.16 and −0.85
[2]; antagonist 10 nM, Compound 2 2.25, Compound 3 1.52
  Maximal BK-induced response in absolute force units ± S.E.M.: 1.47 ± 0.19 grams-weight
[2]; antagonist 100 nM, Compound 2 2.25, Compound 3 1.52
  Maximal BK-induced response in absolute force units ± S.E.M.: 1.50 ± 0.27 grams-weight
[2]; antagonist 1 μM, Compound 2 2.25, Compound 3 1.52
  Maximal BK-induced response in absolute force units ± S.E.M.: 1.40 ± 0.22 grams-weight
[2]; antagonist 10 μM, Compound 2 2.25
  Maximal BK-induced response in absolute force units ± S.E.M.: 1.27 ± 0.17 grams-weight
[2]; potency from pA2
  pA2 value converted into nM: 8.71 nM and 8.7 nM
Mouse B2 receptor
  IC50: 15.5 nM
[3]
  pA2, previously reported value: 8.2
Rat B2 receptor
  IC50: 37.4 nM
Dog B2 receptor
  IC50: 87.1 nM
